Experiments:
[1] = human gut metagenome, 24 h, 2 µM
[2] = human gut metagenome, 24 h, 2 µM; remark: listed apart in the source
[3] = (§1) The drug is tested on Z-008 corresponding to metagenome with ENA study accession number: PRJEB37062 and ENA sample accession number: ERS12561808 for biotransformation under anaerobic condition. The drug concentrations were measured over 9 timepoints collected between 0 and 24 hours of incubation by liquid-chromatography-coupled mass spectrometry (LC–MS); conditions: 2 µM
[4] = human gut metagenome, 24 h, 2 µM; remark: listed apart in the source
[5] = (§2) The drug is tested on WLS-090 corresponding to human gut metagenome with ENA study accession number: PRJEB37062 and ENA sample accession number: ERS12561753 for biotransformation under anaerobic condition. The drug concentrations were measured over 9 timepoints collected between 0 and 24 hours of incubation by liquid-chromatography-coupled mass spectrometry (LC–MS); conditions: 2 µM
[6] = as §2, with “Z-002” for “WLS-090”, “rabbit” for “human”, “ERS12561802” for “ERS12561753”; conditions: 2 µM
[7] = as §2, with “WLS-027” for “WLS-090”, “ERS12561744” for “ERS12561753”; conditions: 2 µM
[8] = as §2, with “WLS-370” for “WLS-090”, “ERS12561793” for “ERS12561753”; conditions: 2 µM
[9] = as §2, with “WLS-052” for “WLS-090”, “ERS12561747” for “ERS12561753”; conditions: 2 µM
[10] = human gut metagenome, 24 h, 2 µM; remark: listed apart in the source
[11] = as §1, with “Z-005” for “Z-008”, “ERS12561805” for “ERS12561808”; conditions: 2 µM
[12] = human gut metagenome, 24 h, 2 µM; remark: listed apart in the source
[13] = as §2, with “Z-006” for “WLS-090”, “mouse” for “human”, “ERS12561806” for “ERS12561753”; conditions: 2 µM
[14] = as §2, with “WLS-073” for “WLS-090”, “ERS12561749” for “ERS12561753”; conditions: 2 µM
[15] = human gut metagenome, 24 h, 2 µM; remark: listed apart in the source
[16] = as §2, with “Z-009” for “WLS-090”, “pig” for “human”, “ERS12561809” for “ERS12561753”; conditions: 2 µM
[17] = as §2, with “WLS-007” for “WLS-090”, “ERS12561742” for “ERS12561753”; conditions: 2 µM
[18] = human gut metagenome, 24 h, 2 µM; remark: listed apart in the source
[19] = as §2, with “WLS-039” for “WLS-090”, “ERS12561746” for “ERS12561753”; conditions: 2 µM
[20] = human gut metagenome, 24 h, 2 µM; remark: listed apart in the source
Further: call rule not given here.

Row | Bacterial Biotransformation [1] | Bacterial Biotransformation [2] | Bacterial Biotransformation [3] | Bacterial Biotransformation [4] | Bacterial Biotransformation [5] | Bacterial Biotransformation [6] | Bacterial Biotransformation [7] | Bacterial Biotransformation [8] | Bacterial Biotransformation [9] | Bacterial Biotransformation [10] | Bacterial Biotransformation [11] | Bacterial Biotransformation [12] | Bacterial Biotransformation [13] | Bacterial Biotransformation [14] | Bacterial Biotransformation [15] | Bacterial Biotransformation [16] | Bacterial Biotransformation [17] | Bacterial Biotransformation [18] | Bacterial Biotransformation [19] | Bacterial Biotransformation [20] | SMILES
1 | Compound NOT metabolized | Compound metabolized | Compound NOT metabolized | Compound NOT metabolized | Compound metabolized | Compound metabolized | Compound NOT metabolized | Compound NOT metabolized | Compound NOT metabolized | Compound NOT metabolized | Compound NOT metabolized | Compound metabolized | Compound NOT metabolized | Compound metabolized | Compound NOT metabolized | Compound NOT metabolized | Compound NOT metabolized | Compound metabolized | Compound NOT metabolized | Compound metabolized | Nc1nc(NC2CC2)c2ncn([C@H]3C=C[C@@H](CO)C3)c2n1.Nc1nc(NC2CC2)c2ncn([C@H]3C=C[C@@H](CO)C3)c2n1.O=S(=O)(O)O [ABACAVIR SULFATE]
2 | Compound NOT metabolized | Compound metabolized | Compound NOT metabolized | Compound NOT metabolized | Compound metabolized | Compound metabolized | Compound NOT metabolized | Compound NOT metabolized | Compound NOT metabolized | Compound NOT metabolized | Compound NOT metabolized | Compound NOT metabolized | Compound NOT metabolized | Compound NOT metabolized | Compound NOT metabolized | Compound NOT metabolized | Compound NOT metabolized | Compound NOT metabolized | Compound NOT metabolized | Compound metabolized | CCN(CC)CCNC(=O)c1ccc(NC(C)=O)cc1 [ACECAINIDE]
3 | Compound NOT metabolized | Compound metabolized | Compound NOT metabolized | Compound NOT metabolized | Compound metabolized | Compound NOT metabolized | Compound NOT metabolized | Compound NOT metabolized | Compound metabolized | Compound NOT metabolized | Compound NOT metabolized | Compound NOT metabolized | Compound NOT metabolized | Compound NOT metabolized | Compound metabolized | Compound NOT metabolized | Compound metabolized | Compound NOT metabolized | Compound NOT metabolized | Compound NOT metabolized | O=C1CN2Cc3c(ccc(Cl)c3Cl)N=C2N1 [ANAGRELIDE]

Row | SMILES | Bacterial Biotransformation [1] | Bacterial Biotransformation [2] | Bacterial Biotransformation [3] | Bacterial Biotransformation [4] | Bacterial Biotransformation [5] | Bacterial Biotransformation [6] | Bacterial Biotransformation [7] | Bacterial Biotransformation [8] | Bacterial Biotransformation [9] | Bacterial Biotransformation [10] | Bacterial Biotransformation [11] | Bacterial Biotransformation [12] | Bacterial Biotransformation [13] | Bacterial Biotransformation [14] | Bacterial Biotransformation [15] | Bacterial Biotransformation [16] | Bacterial Biotransformation [17] | Bacterial Biotransformation [18] | Bacterial Biotransformation [19] | Bacterial Biotransformation [20]
4 | CN(C)C(=O)Oc1cc(OC(=O)N(C)C)cc(C(O)CNC(C)(C)C)c1 (stereo not given) [BAMBUTEROL] | Compound NOT metabolized | Compound metabolized | Compound NOT metabolized | Compound NOT metabolized | Compound metabolized | Compound metabolized | Compound NOT metabolized | Compound NOT metabolized | Compound NOT metabolized | Compound metabolized | Compound NOT metabolized | Compound NOT metabolized | Compound NOT metabolized | Compound NOT metabolized | Compound NOT metabolized | Compound metabolized | Compound metabolized | Compound metabolized | Compound NOT metabolized | Compound metabolized

Reference: ChEMBL document CHEMBL5724914, “Linking interpersonal differences in gut microbiota composition and drug biotransformation activity” (2024)
